From patent US20120115724A1, “METHOD OF CONTROLLING UNDESIRED VEGETATION” (SYNGENTA CROP PROTECTION LLC, priority 2009, published 2012)

How the values were obtained:
Format in all cases: in vivo
[1] = test system: Ipomea hederaceae (IPOHE); assay: Pre-emergence biological efficacy (Example 13); conditions: pre-emergence, 1,000 g/ha, after 13 days; for pest or weed control at 1000 g/ha: Ipomoea hederacea, 312 h, read-out: Percentage damage IPOHE
Procedure: (§1) Seeds of Alopecurus myosuroides (ALOMY), Setaria faberi (SETFA), Echinochloa crus-galli (ECHCG), Solanum nigrum (SOLNI), Amaranthus retroflexus (AMARE) and Ipomea hederaceae (IPOHE) were sown in standard soil in pots. After cultivation for one day under controlled conditions in a glasshouse (at 24/16° C., day/night; 14 hours light; 65% humidity), the plants were sprayed with an aqueous spray solution derived from the formulation of the technical active ingredient in acetone/water (50:50) solution containing 0.5% Tween 20 (polyoxyethylene sorbitan monolaurate, CAS RN 9005-64-5) to give a final dose of 250 or 1000g/ha of test compound. The test plants were then grown under controlled conditions in the glasshouse (at 24/16° C., day/night; 14 hours light; 65% humidity) and watered twice daily. After 13 days the test was evaluated (100 =total damage to plant; 0 =no damage to plant).

[2] = test system: Solanum nigrum (SOLNI); assay: Pre-emergence biological efficacy (Example 13); conditions: pre-emergence, 1,000 g/ha, after 13 days; for pest or weed control at 1000 g/ha: Solanum nigrum, 312 h, read-out: Percentage damage SOLNI
Procedure: as §1

[3] = test system: Setaria faberi (SETFA); assay: Pre-emergence biological efficacy (Example 13); conditions: pre-emergence, 1,000 g/ha, after 13 days; for pest or weed control at 1000 g/ha: Setaria faberi, 312 h, read-out: Percentage damage SETFA
Procedure: as §1

[4] = test system: Amaranthus retroflexus (AMARE); assay: Pre-emergence biological efficacy (Example 13); conditions: pre-emergence, 1,000 g/ha, after 13 days; for pest or weed control at 1000 g/ha: Amaranthus retroflexus, 312 h, read-out: Percentage damage AMARE
Procedure: as §1

[5] = test system: Echinochloa crus-galli (ECHCG); assay: Pre-emergence biological efficacy (Example 13); conditions: pre-emergence, 1,000 g/ha, after 13 days; for pest or weed control at 1000 g/ha: Echinochloa crus-galli, 312 h, read-out: Percentage damage ECHCG
Procedure: as §1

[6] = test system: Alopecurus myosuroides (ALOMY); assay: Pre-emergence biological efficacy (Example 13); conditions: pre-emergence, 1,000 g/ha, after 13 days; for pest or weed control at 1000 g/ha: Alopecurus myosuroides, 312 h, read-out: Percentage damage ALOMY
Procedure: as §1

[7] = test system: Ipomea hederaceae (IPOHE); assay: Post-emergence biological efficacy (Example 14); conditions: post-emergence, 1,000 g/ha, after 13 days; for pest or weed control at 1000 g/ha: Ipomoea hederacea, 312 h, read-out: Percentage damage IPOHE
Procedure: as §1, with “for 8 days” for “for one day”, “or 1000 g/ha” for “or 1000g/ha”, “grown on” for “grown”, “in a” for “in the”, “evaluated (100=total” for “evaluated (100 =total”, “plant; 0=no” for “plant; 0 =no”

[8] = test system: Solanum nigrum (SOLNI); assay: Post-emergence biological efficacy (Example 14); conditions: post-emergence, 1,000 g/ha, after 13 days; for pest or weed control at 1000 g/ha: Solanum nigrum, 312 h, read-out: Percentage damage SOLNI
Procedure: as §1, with “for 8 days” for “for one day”, “or 1000 g/ha” for “or 1000g/ha”, “grown on” for “grown”, “in a” for “in the”, “evaluated (100=total” for “evaluated (100 =total”, “plant; 0=no” for “plant; 0 =no”

[9] = test system: Setaria faberi (SETFA); assay: Post-emergence biological efficacy (Example 14); conditions: post-emergence, 1,000 g/ha, after 13 days; for pest or weed control at 1000 g/ha: Setaria faberi, 312 h, read-out: Percentage damage SETFA
Procedure: as §1, with “for 8 days” for “for one day”, “or 1000 g/ha” for “or 1000g/ha”, “grown on” for “grown”, “in a” for “in the”, “evaluated (100=total” for “evaluated (100 =total”, “plant; 0=no” for “plant; 0 =no”

[10] = test system: Amaranthus retroflexus (AMARE); assay: Post-emergence biological efficacy (Example 14); conditions: post-emergence, 1,000 g/ha, after 13 days; for pest or weed control at 1000 g/ha: Amaranthus retroflexus, 312 h, read-out: Percentage damage AMARE
Procedure: as §1, with “for 8 days” for “for one day”, “or 1000 g/ha” for “or 1000g/ha”, “grown on” for “grown”, “in a” for “in the”, “evaluated (100=total” for “evaluated (100 =total”, “plant; 0=no” for “plant; 0 =no”

[11] = test system: Echinochloa crus-galli (ECHCG); assay: Post-emergence biological efficacy (Example 14); conditions: post-emergence, 1,000 g/ha, after 13 days; for pest or weed control at 1000 g/ha: Echinochloa crus-galli, 312 h, read-out: Percentage damage ECHCG
Procedure: as §1, with “for 8 days” for “for one day”, “or 1000 g/ha” for “or 1000g/ha”, “grown on” for “grown”, “in a” for “in the”, “evaluated (100=total” for “evaluated (100 =total”, “plant; 0=no” for “plant; 0 =no”

[12] = test system: Alopecurus myosuroides (ALOMY); assay: Post-emergence biological efficacy (Example 14); conditions: post-emergence, 1,000 g/ha, after 13 days; for pest or weed control at 1000 g/ha: Alopecurus myosuroides, 312 h, read-out: Percentage damage ALOMY
Procedure: as §1, with “for 8 days” for “for one day”, “or 1000 g/ha” for “or 1000g/ha”, “grown on” for “grown”, “in a” for “in the”, “evaluated (100=total” for “evaluated (100 =total”, “plant; 0=no” for “plant; 0 =no”

Row | Compound | pest or weed control at 1000 g/ha [1] [%] | pest or weed control at 1000 g/ha [2] [%] | pest or weed control at 1000 g/ha [3] [%] | pest or weed control at 1000 g/ha [4] [%] | pest or weed control at 1000 g/ha [5] [%] | pest or weed control at 1000 g/ha [6] [%] | pest or weed control at 1000 g/ha [7] [%] | pest or weed control at 1000 g/ha [8] [%] | pest or weed control at 1000 g/ha [9] [%] | pest or weed control at 1000 g/ha [10] [%] | pest or weed control at 1000 g/ha [11] [%] | pest or weed control at 1000 g/ha [12] [%] | other results
1 | C=Cc1c(N)nc(-c2ccc(Cl)c(N(C)C)c2F)nc1C(=O)OCCOCCCC [Compound 46, 4-Amino-6-(2- ^nbutoxy-ethoxy)carbonyl-2-(4-chloro-3-dimethylamino-2-fluorophenyl)-5-ethenyl-pyrimidine] | – | – | – | – | – | – | – | – | – | – | – | – | Percentage damage IPOHE [1]: 50%; Percentage damage SOLNI [2]: 100%; Percentage damage SETFA [3]: 90%; Percentage damage AMARE [4]: 100%; Percentage damage ECHCG [5]: 100%; Percentage damage ALOMY [6]: 80%; Percentage damage IPOHE [7]: 80%; Percentage damage SOLNI [8]: 90%; Percentage damage SETFA [9]: 90%; Percentage damage AMARE [10]: 100%; Percentage damage ECHCG [11]: 90%; Percentage damage ALOMY [12]: 80%
2 | C=Cc1c(NCc2ccco2)nc(-c2ccc(Cl)c(OC)c2F)nc1C(=O)O [Compound 35, 2-(4-Chloro-2-fluoro-3-methoxyphenyl)-5-ethenyl-4-(furan-2-ylmethylamino)-pyrimidine-6-carboxylic acid] | 100 | 100 | 90 | 100 | 90 | 70 | 70 | 90 | 80 | 100 | 80 | 70 | –
3 | C=Cc1c(NCc2ccco2)nc(-c2ccc(Cl)c(N(C)C)c2F)nc1C(=O)OC [Compound 13, 2-(4-Chloro-3-dimethylamino-2-fluorophenyl)-5-ethenyl-4-(furan-2-ylmethylamino)-6-methoxycarbonyl-pyrimi-dine] | 20 | 90 | 60 | 90 | 90 | 70 | 40 | 100 | 80 | 100 | 80 | 70 | –
4 | C/C=C/c1c(N)nc(-c2ccc(Cl)c(N(C)C)c2F)nc1C(=O)OC [Compound 12, (E)-4-Amino-2-(4-chloro-3-dimethylamino-2-fluorophenyl)-6-methoxy-carbonyl-5-(prop-1-enyl)-pyrimidine] | 0 | 80 | 80 | 100 | 90 | 70 | 40 | 80 | 80 | 100 | 80 | 80 | –
5 | C=Cc1c(NCc2ccco2)nc(-c2ccc(Cl)c(OC)c2F)nc1C(=O)OCCOCC [Compound 48, 2-(4-Chloro-2-fluoro-3-methoxyphenyl)-5-ethenyl-6-(2-ethoxy-ethoxy)carbonyl-4-(furan-2-ylmethylamino)-pyrimidine] | 0 | 0 | 0 | 0 | 0 | 0 | 60 | 50 | 0 | 40 | 0 | 0 | –
